We go through one compound from US20010039297A1, “COMPOSITIONS AND METHOD FOR IMPROVING INSULIN SENSIVITY AND GLUCOSE METABOLISM IN INDIVIDUALS WITH IMPAIRED FASTING GLUCOSE OR IMPAIRED GLUCOSE TOLERANCE” (Insmed Pharmaceuticals, Inc., priority 1998, published 2001).

Each structure is given as a SMILES string.

Type in all cases: in vivo, human
One test has as its system obese men. Put plainly: tolbutamide-modified frequently sampled intravenous glucose tolerance test (FSIGTT), insulin sensitivity index by minimal model, clinical study. Particulars: single oral dose 300-1200 mg, fasted, 2 hours before FSIGTT. The text has this: The third method of determining insulin sensitivity involves frequently collecting blood samples for glucose and insulin during an intravenous glucose tolerance test, and analyzing the glucose and insulin dynamics using a minimal mathematical model developed by Bergman (Bergman et. al., J. Clin. Invest. 68:1456-1467 (1981)). This test can be modified by the injection of tolbutamide or exogenous insulin to boost the insulin response and improve the correlation with the euglycemic clamp. The FSIGTT provides an accessible way to determine the insulin sensitivity index (S1). The more insulin insensitive a subject is, the lower the calculated S1. As insulin sensitivity is improved, the S1 value is increased—thus a higher S1 value corresponds to greater insulin sensitivity.
A clinical study of D-chiro-inositol was performed in obese men. This was a three phase, double blind, single oral dose crossover study with subjects receiving either D-chiro-inositol (300-1200 mg) or placebo in a randomized crossover fashion. Treatments were administered to subjects in a fasted state 2 hours before the tolbutamide-modified frequently sampled intravenous glucose tolerance test (FSIGTT) began.
The insulin sensitivity index (S1) was derived using the minimal model analysis of plasma glucose and insulin concentrations sampled during a full tolbutamide-modified FSIGTT.

In test [1] the test system is obese men and women with abnormal glucose tolerance. Put plainly: oral glucose tolerance test before and after treatment, clinical study, subjects with abnormal glucose tolerance. Particulars: 1200 mg/day for 7 to 14 days. As for the experimental part: (§1) Impaired glucose tolerance, as defined by the World Health Organization, is determined by the administration of a standard oral glucose tolerance test (OGTT) (World Health Org., Diabetes Mellitus, Tech. Rep. Ser., no. 727 (1985)). During an OGTT, a measured amount of glucose (75 grams) is given to a fasted individual and blood glucose levels are measured every 30 minutes, usually for 2 or 3 hours. In a individual with normal glucose tolerance, the blood glucose values will rise during the first part of the test and then rapidly return to basal levels. In an IGT individual the post prandial glucose levels will rise above the normal range, producing a 2-hour glucose value of 140-199 mg/dL, and return to basal levels at a slow rate.
(§2) A clinical study utilizing D-chiro-inositol was performed in obese men and women with normal and abnormal glucose tolerance. Eighteen volunteers received D-chiro-inositol (1200 mg/day) for 7 to 14 days. An oral glucose tolerance test was performed at the beginning of the study, prior to treatment, and at the end of the study, after D-chiro-inositol treatment.

The test system of test [2] is obese men and women with normal glucose tolerance. Put plainly: oral glucose tolerance test before and after treatment, clinical study, subjects with normal glucose tolerance. Particulars: eleven volunteers with normal glucose response; 1200 mg/day for 7 to 14 days. The method, then:
as §1, §2

Take `OC1C(O)C(O)C(O)C(O)C1O` [D-chiro-inositol]: the “mean increase in insulin sensitivity” value in the test on obese men worked out at 61%. The “subjects demonstrating an increase in insulin sensitivity (S1)” value in the test with obese men (out of 9 subjects) is listed as 6 out of 9. In test [1] (abnormal glucose tolerant subjects, p<0.05), the “90 and 120 minute glucose values in OGTT” value is recorded as “statistically significant reduction”. For the same compound, the “glucose response to the glucose load (OGTT)” value in test [1] (seven subjects with abnormal, elevated glucose response) is recorded as “significantly improved”. In addition, the “glucose values during OGTT” value in test [2] is listed as “not modified”.
